For one test, the system named is HCV genotype 1b replicon. The experiment in a line: HCV replicon assay, genotype 1b replicon EC50. The format is cell-based, Hepatitis C virus. The conditions noted are these: Hepatitis C virus, read-out: EC50 [gt-1b]. In a few lines:
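Cells harbouring a stable replicon are grown under G418 selection, then plated with test compound in G418-free medium for 24-48 hours. After washing and lysis, RNA or luciferase signal is measured and expressed as percent of DMSO control to give EC50.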
In general terms: A replicon is a self-replicating genome or part of one, used to study replication in cells.

The target in test [1] is HCV NS3/4A protease genotype 1b (Hepatitis C virus genotype 1b, UniProt P26663). Put plainly: HCV NS3/4A protease time-resolved fluorescence (TRF) assay, Ki against genotype 1b. The format is biochemical. Put shortly:
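Enzyme was pre-incubated 30 min with inhibitor in HEPES pH 7.5 buffer (150 mM NaCl, 15% glycerol, 10 mM DTT). Reaction ran 2.5 h at room temperature with 25 nM europium TRF peptide substrate, read at ex 340/em 615 nm. Enzyme levels: 0.2 nM (1b), 0.4 nM (A156T), 0.025 nM (3a). Ki came from four-parameter IC50 via IC50=Ki(1+[S]/KM).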

Where [2] appears, read: IC50 [gt-1b] (nM), NS3/4A genotype 1b, enzyme 0.2 nM, K+ salt.
[3] abbreviates: IC50 [gt-1b] (nM), NS3/4A genotype 1b, enzyme 0.2 nM.
Setting [4] is: HCV replicon, genotype 1b, K+ salt.
The mark [5] stands for this setting: IC50 [gt-1b], NS3/4A protease TRF assay, genotype 1b enzyme 0.2 nM, K+ salt.
Setting [6] is: IC50 [gt-1b], NS3/4A protease TRF assay, genotype 1b enzyme 0.2 nM.

The results in this text go back to US8987195B2 (priority 2012, dated 2015).

Read-outs that look alike come from different tables or passages of the source.

For the molecule `Cc1nc2cc(Cl)ccc2c2c1O[C@]1(CC2)C[C@H]2C(=O)N[C@]3(C(=O)NS(=O)(=O)C4(C)CC4)C[C@H]3/C=C\CCCCC[C@H](NC(=O)OCC(C)C)C(=O)N2C1` [Example 234, 2-methylpropyl [(2R,6S,12Z,13aS,14aR,16aS)-8′-chloro-5′-methyl-14a-{[(1-methylcyclopropyl)sulfonyl]carbamoyl}-5,16-dioxo-1,1′,2′,5,6,7,8,9,10,11,13a,14,14a,15,16,16a-hexadecahydrospiro[cyclopropa[e]pyrrolo[1,2-a][1,4]diazacyclopentadecine-2,3′-pyrano[2,3-c]quinolin]-6-yl]carbamate], the EC50 (as a rule, the concentration at which the effect is half-maximal) with HCV genotype 1b replicon (genotype 1b replicon, K+ salt) stood at 4.48 nM. In addition, the IC50 – broadly, the midpoint of a concentration-inhibition curve – in test [1] (setting [2]) came out at 0.025 nM.

On to `COc1ccc2nc(C3CC3)c3c(c2c1)CC[C@]1(C[C@H]2C(=O)N[C@]4(C(=O)NS(=O)(=O)C5(C)CC5)C[C@H]4/C=C\CCCCC[C@H](NC(=O)OC4CCCC4)C(=O)N2C1)O3` [Example 91, cyclopentyl [(2R,6S,12Z,13aS,14aR,16aS)-5′-cyclopropyl-9′-methoxy-14a-{[(1-methylcyclopropyl)sulfonyl]carbamoyl}-5,16-dioxo-1,1′,2′,5,6,7,8,9,10,11,13a,14,14a,15,16,16a-hexadecahydrospiro[cyclopropa[e]pyrrolo[1,2-a][1,4]diazacyclopentadecine-2,3′-pyrano[2,3-c]quinolin]-6-yl]carbamate], for which the EC50 with HCV genotype 1b replicon (genotype 1b replicon) is 0.46 nM. Further, half-maximal inhibition in test [1] (setting [3]) (IC50) required 0.009 nM.

Consider `CCOC(=O)N[C@H]1CCCCC/C=C\[C@@H]2C[C@@]2(C(=O)NS(=O)(=O)C2(C)CC2)NC(=O)[C@@H]2C[C@]3(CCc4c(c(C5CC5)nc5ccc(OC)cc45)O3)CN2C1=O` [Example 436, ethyl [(2R,6S,12Z,13aS,14aR,16aS)-5′-cyclopropyl-9′-methoxy-14a-{[(1-methylcyclopropyl)sulfonyl]carbamoyl}-5,16-dioxo-1,1′,2′,5,6,7,8,9,10,11,13a,14,14a,15,16,16a-hexadecahydrospiro[cyclopropa[e]pyrrolo[1,2-a][1,4]diazacyclopentadecine-2,3′-pyrano[2,3-c]quinolin]-6-yl]carbamate], for which the EC50 in the test on HCV genotype 1b replicon (setting [4]) worked out at 1.18 nM. In addition, the IC50 in test [1] (setting [5]) was found to be 0.029 nM.

In the case of `Cc1ccc2nc(C(F)(F)F)c3c(c2c1)CC[C@]1(C[C@H]2C(=O)N[C@]4(C(=O)NS(=O)(=O)C5(C)CC5)C[C@H]4/C=C\CCCCC[C@H](NC(=O)OCCCN4CCCCC4)C(=O)N2C1)O3` [Example 423, 3-(piperidin-1-yl)propyl [(2R,6S,12Z,13aS,14aR,16aS)-9′-methyl-14a-{[(1-methylcyclopropyl)sulfonyl]carbamoyl}-5,16-dioxo-5′-(trifluoromethyl)-1,1′,2′,5,6,7,8,9,10,11,13a,14,14a,15,16,16a-hexadecahydrospiro[cyclopropa[e]pyrrolo[1,2-a][1,4]diazacyclopentadecine-2,3′-pyrano[2,3-c]quinolin]-6-yl]carbamate], the EC50 in the test on HCV genotype 1b replicon (HCV replicon, genotype 1b) is 19 nM. The molecule further registered an IC50 in test [1] (setting [6]) of 0.048 nM.

For the molecule `COc1ccc2nc(C)c3c(c2c1)[C@H](F)C[C@]1(C[C@H]2C(=O)N[C@]4(C(=O)NS(=O)(=O)C5(C)CC5)C[C@H]4/C=C\CCCCC[C@H](NC(=O)OC(C)(C)C)C(=O)N2C1)O3` [Example 56, tert-Butyl ((1′R,2S,6S,13aS,14aR,16aS,Z)-1′-fluoro-9′-methoxy-5′-methyl-14a-(((1-methylcyclopropyl)sulfonyl)carbamoyl)-5,16-dioxo-1′,2′,3,5,6,7,8,9,10,11,13a,14,14a, 15,16,16a-hexadecahydro-1H-spiro[cyclopropa[e]pyrrolo[1,2-a][1,4]diazacyclopentadecine-2,3′-pyrano[2,3-c]quinolin]-6-yl)carbamate], the EC50 in the test on HCV genotype 1b replicon (genotype 1b replicon, K+ salt) is 1.66 nM. In addition, the IC50 in test [1] (setting [2]) was 0.008 nM.

`COc1ccc2nc(C(F)F)c3c(c2c1)CC[C@]1(C[C@H]2C(=O)N[C@]4(C(=O)NS(=O)(=O)C5(C)CC5)C[C@H]4/C=C\CCCCC[C@H](NC(=O)OCC(C)(C)C)C(=O)N2C1)O3` [Example 441, 2,2-dimethylpropyl [(2R,6S,12Z,13aS,14aR,16aS)-5′-(difluoromethyl)-9′-methoxy-14a-{[(1-methylcyclopropyl)sulfonyl]carbamoyl}-5,16-dioxo-1,1′,2′,5,6,7,8,9,10,11,13a,14,14a,15,16,16a-hexadecahydrospiro[cyclopropa[e]pyrrolo[1,2-a][1,4]diazacyclopentadecine-2,3′-pyrano[2,3-c]quinolin]-6-yl]carbamate]: in the test with HCV genotype 1b replicon (setting [4]), the EC50 was found to be 1.53 nM. The IC50 in test [1] (setting [5]) was found to be 0.016 nM.

As to `COc1ccc2c3c(c(C4CC4)nc2c1)O[C@]1(CC3)C[C@H]2C(=O)N[C@]3(C(=O)NS(=O)(=O)C4(C)CC4)C[C@H]3/C=C\CCCCC[C@H](NC(=O)NC3CCCC3)C(=O)N2C1` [Example 133, (2R,6S,12Z,13aS,14aR,16aS)-6-[(cyclopentylcarbamoyl)amino]-5′-cyclopropyl-8′-methoxy-N-[(1-methylcyclopropyl)sulfonyl]-5,16-dioxo-1,1′,2′,6,7,8,9,10,11,13a,14,15,16,16a-tetradecahydrospiro[cyclopropa[e]pyrrolo[1,2-a][1,4]diazacyclopentadecine-2,3′-pyrano[2,3-c]quinoline]-14a(5H)-carboxamide], in the test on HCV genotype 1b replicon (genotype 1b replicon), the EC50 is 17.4 nM. The IC50 in test [1] (setting [3]) turned out to be 0.007 nM.

As to `CC1(OC(=O)N[C@H]2CCCCC/C=C\[C@@H]3C[C@@]3(C(=O)NS(=O)(=O)C3(C)CC3)NC(=O)[C@@H]3C[C@]4(CCc5c(c(C6CC6)nc6c(F)cccc56)O4)CN3C2=O)CC1` [Example 168, 1-methylcyclopropyl [(2R,6S,12Z,13aS,14aR,16aS)-5′-cyclopropyl-7′-fluoro-14a-{[(1-methylcyclopropyl)sulfonyl]carbamoyl}-5,16-dioxo-1,1′,2′,5,6,7,8,9,10,11,13a,14,14a,15,16,16a-hexadecahydrospiro[cyclopropa[e]pyrrolo[1,2-a][1,4]diazacyclopentadecine-2,3′-pyrano[2,3-c]quinolin]-6-yl]carbamate], in the test with HCV genotype 1b replicon (genotype 1b replicon), the EC50 was found to be 3.73 nM. This molecule showed an IC50 in test [1] (setting [3]) of 0.013 nM.

As for `CC(C)(C)OC(=O)N[C@H]1CCCCC/C=C\[C@@H]2C[C@@]2(C(=O)NS(=O)(=O)C2(C)CC2)NC(=O)[C@@H]2C[C@]3(CCc4c(c(C(F)(F)F)nc5ccc(Cl)cc45)O3)CN2C1=O` [Example 378, tert-butyl [(2R,6S,12Z,13aS,14aR,16aS)-9′-chloro-14a-{[(1-methylcyclopropyl)sulfonyl]carbamoyl}-5,16-dioxo-5′-(trifluoromethyl)-1,1′,2′,5,6,7,8,9,10,11,13a,14,14a,15,16,16a-hexadecahydrospiro[cyclopropa[e]pyrrolo[1,2-a][1,4]diazacyclopentadecine-2,3′-pyrano[2,3-c]quinolin]-6-yl]carbamate], in the test on HCV genotype 1b replicon (HCV replicon, genotype 1b), the half-maximal effective concentration (EC50) is 3.59 nM. Also, the IC50 in test [1] (setting [6]) worked out at 0.02 nM.

For the molecule `CC(C)COC(=O)N[C@H]1CCCCC/C=C\[C@@H]2C[C@@]2(C(=O)NS(=O)(=O)C2(C)CC2)NC(=O)[C@@H]2C[C@]3(CCc4c(c(C(F)F)nc5ccc(Cl)cc45)O3)CN2C1=O` [Example 368, 2-methylpropyl [(2R,6S,12Z,13aS,14aR,16aS)-9′-chloro-5′-(difluoromethyl)-14a-{[(1-methylcyclopropyl)sulfonyl]carbamoyl}-5,16-dioxo-1,1′,2′,5,6,7,8,9,10,11,13a,14,14a,15,16,16a-hexadecahydrospiro[cyclopropa[e]pyrrolo[1,2-a][1,4]diazacyclopentadecine-2,3′-pyrano[2,3-c]quinolin]-6-yl]carbamate], the EC50 with HCV genotype 1b replicon (HCV replicon, genotype 1b) worked out at 9.68 nM. In addition, it took 0.017 nM to reach half-maximal inhibition in test [1] (setting [6]) (IC50).

Regarding `Cc1nc2ccccc2c2c1O[C@]1(CC2)C[C@H]2C(=O)N[C@]3(C(=O)NS(=O)(=O)C4(C)CC4)C[C@H]3/C=C\CCCCC[C@H](NC(=O)OC3CC(F)(F)C3(F)F)C(=O)N2C1` (stereo partly drawn) [Example 320, 2,2,3,3-tetrafluorocyclobutyl [(2R,6S,12Z,13aS,14aR,16aS)-5′-methyl-14a-{[(1-methylcyclopropyl)sulfonyl]carbamoyl}-5,16-dioxo-1,1′,2′,5,6,7,8,9,10,11,13a,14,14a,15,16,16a-hexadecahydrospiro[cyclopropa[e]pyrrolo[1,2-a][1,4]diazacyclopentadecine-2,3′-pyrano[2,3-c]quinolin]-6-yl]carbamate], in the test on HCV genotype 1b replicon (genotype 1b replicon), the EC50 amounted to 4.44 nM. Also, in test [1] (setting [3]), inhibition was half-maximal at 0.013 nM (IC50).

For the molecule `Cc1nc2ccccc2c2c1O[C@]1(CC2)C[C@H]2C(=O)N[C@]3(C(=O)NS(=O)(=O)C4(C)CC4)C[C@H]3/C=C\CCCCC[C@H](Nc3nc4ccccc4o3)C(=O)N2C1` [Example 379, (2R,6S,12Z,13aS,14aR,16aS)-6-(1,3-benzoxazol-2-ylamino)-5′-methyl-N-[(1-methylcyclopropyl)sulfonyl]-5,16-dioxo-1,1′,2′,6,7,8,9,10,11,13a,14,15,16,16a-tetradecahydrospiro[cyclopropa[e]pyrrolo[1,2-a][1,4]diazacyclopentadecine-2,3′-pyrano[2,3-c]quinoline]-14a(5H)-carboxamide], in the test on HCV genotype 1b replicon (HCV replicon, genotype 1b), the concentration for a half-maximal effect (EC50) came to 1.36 nM. The molecule also registered an IC50 in test [1] (setting [6]) of 0.104 nM.
